Key:
PK-59 xenograft = experiment: Anti-tumor activity in PK-59 xenograft mouse; format: in vivo; conditions: 10 mg/kg, tail vein, once a week for two weeks, male nude mice
Procedure: (§1) Test Example 4: Evaluation of Anti-Tumor Activity in Human KRAS G12V Mutant-Positive Pancreatic Cancer Line PA-TU-8902 or Human KRAS G12D Mutant-Positive Pancreatic Cancer Line PK-59 Xenograft Mouse
(§2) PA-TU-8902 cells or PK-59 cells (RIKEN BRC, RCB1901) were cultured using DMEM medium or RPMI-1640 medium containing 10% fetal bovine serum, respectively, in the presence of 5% CO2 at 37° C. The PA-TU-8902 cells or the PK-59 cells were collected and suspended in PBS, and two equivalents of VitroGel Hydrogel Matrix (from TheWell Bioscience) was added. A cell suspension prepared at 1.0-2.0×10^7 cells/mL was subcutaneously inoculated in a volume of 100 μL in 4- to 6-week-old male nude mice (BALB/c-nu (nu/nu), from The Jackson Laboratory Japan, Inc.). After about two weeks of the inoculation, the mice were divided into groups so that all the groups had approximately the same tumor volume and body weight, and administration of a subject compound was started on the next day. The test was conducted for five mice for each of a solvent group and a subject compound administration group. The solvent used was a solvent containing ethanol (from FUJIFILM Wako), an aqueous (2-hydroxypropyl)-β-cyclodextrin (HP-PCD) solution (from ROQUETTE), HCO-40 (from Nikko Chemicals Co., Ltd.) dissolved in a 5% glucose solution (from Otsuka Pharmaceutical) at a ratio of 4%, 0.5%, and 9%, respectively. The compound was dissolved using the solvent. The subject compound dissolved in the solvent or the solvent was administered into tail vein. The administration was performed once or twice a week for two weeks. The tumor size and the body weight were measured twice a week. The tumor volume was calculated by using the following formula.
(§3) [Tumor volume (mm^3)]=[Major axis of tumor (mm)]×[Minor axis of tumor (mm)]^2×0.5
(§4) The tumor growth inhibition (%) by the subject compound was calculated with the tumor volume of the subject compound administration group on the previous day of the start of the administration taken as 100% inhibition and the tumor volume of the solvent group of the day of the final measurement taken as 0% inhibition.

PA-TU-8902 xenograft = experiment: Anti-tumor activity in PA-TU-8902 xenograft mouse; format: in vivo; conditions: 30 mg/kg, tail vein, twice a week for two weeks, male nude mice
Procedure: as §1, §2, §3, §4

CO[C@@H](C)COc1nc(NC2CN(C(=O)O[C@H]3C[C@@H](N(C)C)C3)C2)c2cc(C3CC3)c(-c3c(C)c(F)cc4[nH]ncc34)c(OCc3ccc(-c4cn([C@H](C(=O)N5C[C@H](O)C[C@H]5C(=O)N[C@@H](CO)c5ccc(-c6ocnc6C)cc5)C(C)C)nn4)cc3)c2n1 (atropisomer, axis not shown; (M)) [Example 1, (1s,3R)-3-(dimethylamino)cyclobutyl 3-({(7M)-6-cyclopropyl-7-(6-fluoro-5-methyl-1H-indazol-4-yl)-8-{[4-(1-{(2S)-1-[(2S,4R)-4-hydroxy-2-({(1R)-2-hydroxy-1-[4-(4-methyl-1,3-oxazol-5-yl)phenyl]ethyl}carbamoyl)pyrrolidin-1-yl]-3-methyl-1-oxobutan-2-yl}-1H-1,2,3-triazol-4-yl)phenyl]methoxy}-2-[(2S)-2-methoxypropoxy]quinazolin-4-yl}amino)azetidine-1-carboxylate]
Anti-tumor activity at final measurement (PK-59 xenograft mouse), tumor growth inhibition (PK-59 xenograft): 68% inhibition
Anti-tumor activity at final measurement (PA-TU-8902 xenograft mouse), tumor growth inhibition (PA-TU-8902 xenograft): 69% inhibition

CO[C@@H](C)COc1nc(NC2CN(C(=O)O[C@H]3C[C@@H](N(C)C)C3)C2)c2cc(C3CC3)c(-c3c(C)c(F)cc4[nH]ncc34)c(OCc3ccc(-c4cn([C@H](C(=O)N5C[C@H](O)C[C@H]5C(=O)N[C@@H](CO)c5ccc(-c6scnc6C)cc5)C(C)C)nn4)cc3)c2n1 (atropisomer, axis not shown; (M)) [Example 11, (1s,3R)-3-(dimethylamino)cyclobutyl 3-({(7M)-6-cyclopropyl-7-(6-fluoro-5-methyl-1H-indazol-4-yl)-8-{[4-(1-{(2S)-1-[(2S,4R)-4-hydroxy-2-({(1R)-2-hydroxy-1-[4-(4-methyl-1,3-thiazol-5-yl)phenyl]ethyl}carbamoyl)pyrrolidin-1-yl]-3-methyl-1-oxobutan-2-yl}-1H-1,2,3-triazol-4-yl)phenyl]methoxy}-2-[(2S)-2-methoxypropoxy]quinazolin-4-yl}amino)azetidine-1-carboxylate]
Anti-tumor activity at final measurement (PK-59 xenograft mouse), tumor growth inhibition (PK-59 xenograft): 95% inhibition
Anti-tumor activity at final measurement (PA-TU-8902 xenograft mouse), tumor growth inhibition (PA-TU-8902 xenograft): 73% inhibition

CO[C@@H](C)COc1cc(OC2CN(C(=O)N3CC(CN(C)C)C3)C2)c2cc(C3CC3)c(-c3c(C)c(F)cc4[nH]ncc34)c(OCc3ccc(-c4cn([C@H](C(=O)N5C[C@H](O)C[C@H]5C(=O)N[C@@H](CO)c5ccc(-n6cncn6)cc5)C(C)C)nn4)cc3)c2n1 (atropisomer, axis not shown; (M)) [Example 5, (4R)-1-[(2S)-2-(4-{4-[({(7M)-6-cyclopropyl-4-[(1-{3-[(dimethylamino)methyl]azetidine-1-carbonyl}azetidin-3-yl)oxy]-7-(6-fluoro-5-methyl-1H-indazol-4-yl)-2-[(2S)-2-methoxypropoxy]quinolin-8-yl}oxy)methyl]phenyl}-1H-1,2,3-triazol-1-yl)-3-methylbutanoyl]-4-hydroxy-N-{(1R)-2-hydroxy-1-[4-(1H-1,2,4-triazol-1-yl)phenyl]ethyl}-L-prolinamide]
Anti-tumor activity at final measurement (PK-59 xenograft mouse), tumor growth inhibition (PK-59 xenograft): 92% inhibition
Anti-tumor activity at final measurement (PA-TU-8902 xenograft mouse), tumor growth inhibition (PA-TU-8902 xenograft): 56% inhibition

CO[C@@H](C)COc1cc(OC2CN(C(=O)NCCN(C)C)C2)c2cc(C3CC3)c(-c3c(C)c(F)cc4[nH]ncc34)c(OCc3ccc(-c4cn([C@H](C(=O)N5C[C@H](O)C[C@H]5C(=O)N[C@@H](CO)c5ccc(-n6cncn6)cc5)C(C)C)nn4)cc3)c2n1 (atropisomer, axis not shown; (M)) [Example 12, (4R)-1-[(2S)-2-(4-{4-[({(7M)-6-cyclopropyl-4-[(1-{[2-(dimethylamino)ethyl]carbamoyl}azetidin-3-yl)oxy]-7-(6-fluoro-5-methyl-1H-indazol-4-yl)-2-[(2S)-2-methoxypropoxy]quinolin-8-yl}oxy)methyl]phenyl}-1H-1,2,3-triazol-1-yl)-3-methylbutanoyl]-4-hydroxy-N-{(1R)-2-hydroxy-1-[4-(1H-1,2,4-triazol-1-yl)phenyl]ethyl}-L-prolinamide]
Anti-tumor activity at final measurement (PK-59 xenograft mouse), tumor growth inhibition (PK-59 xenograft): 63% inhibition
Anti-tumor activity at final measurement (PA-TU-8902 xenograft mouse), tumor growth inhibition (PA-TU-8902 xenograft): 61% inhibition

CO[C@@H](C)COc1cc(OC2CN(C(=O)O[C@H]3C[C@@H](N(C)C)C3)C2)c2cc(C3CC3)c(-c3c(C)c(F)cc4[nH]ncc34)c(OCc3ccc(-c4cn([C@H](C(=O)N5C[C@H](O)C[C@H]5C(=O)N[C@@H](CO)c5ccc(-n6cncn6)cc5)C(C)C)nn4)cc3)c2n1 (atropisomer, axis not shown; (M)) [Example 13, (1s,3R)-3-(dimethylamino)cyclobutyl 3-({(7M)-6-cyclopropyl-7-(6-fluoro-5-methyl-1H-indazol-4-yl)-8-{[4-(1-{(2S)-1-[(2S,4R)-4-hydroxy-2-({(1R)-2-hydroxy-1-[4-(1H-1,2,4-triazol-1-yl)phenyl]ethyl}carbamoyl)pyrrolidin-1-yl]-3-methyl-1-oxobutan-2-yl}-1H-1,2,3-triazol-4-yl)phenyl]methoxy}-2-[(2S)-2-methoxypropoxy]quinolin-4-yl}oxy)azetidine-1-carboxylate]
Anti-tumor activity at final measurement (PK-59 xenograft mouse), tumor growth inhibition (PK-59 xenograft): 78% inhibition
Anti-tumor activity at final measurement (PA-TU-8902 xenograft mouse), tumor growth inhibition (PA-TU-8902 xenograft): 57% inhibition

Reference: patent US20260049072A1, “HETEROCYCLIC COMPOUND FOR INDUCING DEGRADATION OF MUTANT KRAS PROTEIN” (Astellas Pharma Inc., priority 2022, published 2026)
